Converted amounts (≈) assume the structure as drawn. “And” between values parts separate entries of the source, which are not always exact repeats. Equal entries are not always repeated.
How the values were obtained:
[1] = target: T1, hP2X7 (Homo sapiens, UniProt Q99572); assay: Whole-cell patch clamp, ATP-evoked current, transfected HEK293; format: cell-based
T1 sequence (Q99572 1-595): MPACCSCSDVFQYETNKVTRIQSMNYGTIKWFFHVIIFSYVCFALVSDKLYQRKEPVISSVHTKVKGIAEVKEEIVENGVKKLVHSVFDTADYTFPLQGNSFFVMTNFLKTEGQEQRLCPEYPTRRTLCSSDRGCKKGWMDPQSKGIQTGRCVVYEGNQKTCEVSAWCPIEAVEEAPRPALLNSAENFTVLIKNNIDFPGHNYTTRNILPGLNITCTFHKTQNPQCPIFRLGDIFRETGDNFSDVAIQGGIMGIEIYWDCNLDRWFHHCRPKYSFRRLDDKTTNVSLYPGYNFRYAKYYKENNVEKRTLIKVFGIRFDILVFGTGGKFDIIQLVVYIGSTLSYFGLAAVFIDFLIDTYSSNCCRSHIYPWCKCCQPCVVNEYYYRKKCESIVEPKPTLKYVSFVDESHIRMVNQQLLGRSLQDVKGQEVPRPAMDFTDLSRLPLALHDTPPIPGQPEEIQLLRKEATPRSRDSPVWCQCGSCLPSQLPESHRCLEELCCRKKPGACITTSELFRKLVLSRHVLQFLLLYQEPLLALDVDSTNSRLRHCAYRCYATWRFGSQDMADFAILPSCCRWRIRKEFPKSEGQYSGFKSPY

[2] = target: hP2X2 (Homo sapiens, UniProt Q9UBL9); assay: as above; format: cell-based; settings: HEK293, read-out: inhibition rate
[3] = target: hP2X3 (Homo sapiens, UniProt P56373); assay: Nystatin-perforated patch recording, ATP-evoked current, HEK293; format: cell-based; settings: HEK293, read-out: inhibition rate
[4] = target: hP2X4 (Homo sapiens, UniProt Q99571); assay: as above; format: cell-based; settings: HEK293, read-out: inhibition rate
[5] = target: T2, mP2X7 A312V (Mus musculus, UniProt Q9Z1M0, A312V); assay: Whole-cell patch clamp, mP2X7 mutant; format: cell-based
T2 sequence (Q9Z1M0 1-595 A312V): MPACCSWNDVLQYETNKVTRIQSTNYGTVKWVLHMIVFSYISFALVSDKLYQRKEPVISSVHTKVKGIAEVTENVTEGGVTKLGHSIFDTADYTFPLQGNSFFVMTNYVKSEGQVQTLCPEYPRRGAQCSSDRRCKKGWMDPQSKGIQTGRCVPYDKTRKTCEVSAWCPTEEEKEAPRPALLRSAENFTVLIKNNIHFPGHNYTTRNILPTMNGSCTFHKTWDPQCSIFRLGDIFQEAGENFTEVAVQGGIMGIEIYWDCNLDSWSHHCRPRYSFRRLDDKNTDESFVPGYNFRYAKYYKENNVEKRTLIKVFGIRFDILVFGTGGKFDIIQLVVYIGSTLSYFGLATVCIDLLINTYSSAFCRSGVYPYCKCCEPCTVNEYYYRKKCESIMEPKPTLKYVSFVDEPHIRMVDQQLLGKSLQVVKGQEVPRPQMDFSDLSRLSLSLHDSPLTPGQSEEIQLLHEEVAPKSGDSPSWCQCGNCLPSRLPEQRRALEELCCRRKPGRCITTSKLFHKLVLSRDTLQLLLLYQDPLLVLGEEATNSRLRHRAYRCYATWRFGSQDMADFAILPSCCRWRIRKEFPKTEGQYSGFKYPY

[6] = tested on: pdP2X7 K297R; assay: Whole-cell patch clamp, pdP2X7 mutant; format: cell-based, giant panda; settings: pd7K297R, 30 μM
[7] = tested on: pdP2X7 Y298A; assay: Whole-cell patch clamp, pdP2X7 mutant; format: cell-based, giant panda; settings: pd7Y298A, 30 μM
[8] = Maximal soluble concentration in recording solution; format: physicochemical
[9] = target: pdP2X7 F88A (Ailuropoda melanoleuca, UniProt G1M6C4, F89A); settings: pd7 F88A, 10 μM
[10] = target: pdP2X7 P96G (Ailuropoda melanoleuca, UniProt G1M6C4, P97G); settings: pd7 P96G, 10 μM
[11] = target: pdP2X7 V312A (Ailuropoda melanoleuca, UniProt G1M6C4, V313A); settings: pd7 V312A, 10 μM
[12] = target: pdP2X7 E305F (Ailuropoda melanoleuca, UniProt G1M6C4, E306F); assay: cell-based
Chain of pdP2X7 E305F (G1M6C4 2-595 E306F): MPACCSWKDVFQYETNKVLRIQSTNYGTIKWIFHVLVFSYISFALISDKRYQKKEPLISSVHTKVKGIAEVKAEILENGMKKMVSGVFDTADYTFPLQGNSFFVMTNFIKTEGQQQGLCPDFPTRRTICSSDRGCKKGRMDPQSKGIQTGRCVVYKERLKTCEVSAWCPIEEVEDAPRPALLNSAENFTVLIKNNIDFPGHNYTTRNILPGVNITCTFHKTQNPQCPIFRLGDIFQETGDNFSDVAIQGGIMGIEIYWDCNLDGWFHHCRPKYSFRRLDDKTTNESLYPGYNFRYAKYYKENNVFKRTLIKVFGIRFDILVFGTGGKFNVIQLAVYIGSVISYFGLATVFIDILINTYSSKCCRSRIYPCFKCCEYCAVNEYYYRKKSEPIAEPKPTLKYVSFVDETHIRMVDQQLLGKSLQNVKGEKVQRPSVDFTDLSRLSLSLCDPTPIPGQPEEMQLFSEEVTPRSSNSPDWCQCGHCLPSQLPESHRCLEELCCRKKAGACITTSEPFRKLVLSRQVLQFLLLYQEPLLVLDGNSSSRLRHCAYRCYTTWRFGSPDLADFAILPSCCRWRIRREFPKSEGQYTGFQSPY

Chain of hP2X4 (Q99571 whole entry): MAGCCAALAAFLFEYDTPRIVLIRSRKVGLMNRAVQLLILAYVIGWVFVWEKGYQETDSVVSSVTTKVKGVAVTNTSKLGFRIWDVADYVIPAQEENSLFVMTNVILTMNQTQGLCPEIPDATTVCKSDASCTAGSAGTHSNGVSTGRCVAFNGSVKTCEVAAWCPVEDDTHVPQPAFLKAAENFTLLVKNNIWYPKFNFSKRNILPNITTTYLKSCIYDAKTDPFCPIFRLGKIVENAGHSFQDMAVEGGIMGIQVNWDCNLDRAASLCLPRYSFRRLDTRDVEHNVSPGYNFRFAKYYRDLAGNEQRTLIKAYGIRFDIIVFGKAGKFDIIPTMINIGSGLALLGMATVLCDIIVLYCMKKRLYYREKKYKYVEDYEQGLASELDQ
Chain of pdP2X7 V312A (G1M6C4 2-595 V313A): as the sequence (G1M6C4 2-595 E306F) above, with F305E, V312A counted along it
Chain of pdP2X7 F88A (G1M6C4 2-595 F89A): as the sequence (G1M6C4 2-595 E306F) above, with F88A, F305E counted along it
Chain of hP2X3 (P56373 whole entry): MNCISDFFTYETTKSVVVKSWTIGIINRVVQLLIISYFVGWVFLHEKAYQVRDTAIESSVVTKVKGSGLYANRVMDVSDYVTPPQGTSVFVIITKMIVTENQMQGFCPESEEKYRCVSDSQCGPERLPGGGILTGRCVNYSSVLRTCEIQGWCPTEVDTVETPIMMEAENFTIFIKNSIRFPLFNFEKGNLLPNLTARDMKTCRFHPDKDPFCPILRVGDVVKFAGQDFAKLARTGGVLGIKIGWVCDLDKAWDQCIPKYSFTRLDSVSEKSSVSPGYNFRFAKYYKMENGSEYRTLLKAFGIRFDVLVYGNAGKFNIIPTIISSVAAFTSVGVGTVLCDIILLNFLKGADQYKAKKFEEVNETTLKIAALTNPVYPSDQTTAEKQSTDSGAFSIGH
Chain of hP2X2 (Q9UBL9 whole entry): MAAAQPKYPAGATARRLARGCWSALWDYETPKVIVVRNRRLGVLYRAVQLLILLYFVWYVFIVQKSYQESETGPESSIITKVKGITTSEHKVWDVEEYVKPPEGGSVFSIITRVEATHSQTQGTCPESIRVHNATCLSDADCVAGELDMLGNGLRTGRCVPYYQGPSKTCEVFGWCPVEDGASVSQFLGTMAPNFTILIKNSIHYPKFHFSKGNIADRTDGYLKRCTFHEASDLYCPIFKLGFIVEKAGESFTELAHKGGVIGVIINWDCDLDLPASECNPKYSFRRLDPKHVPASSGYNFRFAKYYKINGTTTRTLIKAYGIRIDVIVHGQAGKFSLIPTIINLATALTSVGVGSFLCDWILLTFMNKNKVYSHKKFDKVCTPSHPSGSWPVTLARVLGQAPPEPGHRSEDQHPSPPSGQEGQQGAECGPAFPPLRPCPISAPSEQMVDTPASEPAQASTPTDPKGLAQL
Chain of pdP2X7 P96G (G1M6C4 2-595 P97G): as the sequence (G1M6C4 2-595 E306F) above, with P96G, F305E counted along it

**Q.** For `C=CC[C@@H]1c2ccc(OC)c(OC)c2CN2CCc3cc4c(cc3[C@H]12)OCO4` [PSFL1191, (13R,13aS)-13-allyl-9,10-dimethoxy-5,8,13,13a-tetrahydro-6H-1,3dioxolo[4,5-g]isoquinolino[3,2-a]isoquinoline], which IC50 [1] is on record?
**A.** 248 ± 17 nM

**Q.** And the “fold difference in affinity for hP2X7 between PSFL1191 and PSFL1190” value [1]?
**A.** ~50 fold and > 50 fold

**Q.** What about the inhibition at 30 µM [2] of the same compound?
**A.** 3.09 ± 7.46%

**Q.** And the inhibition at 30 µM [3]?
**A.** 20.6 ± 6.4%

**Q.** What about the inhibition at 30 µM [4] of the same compound?
**A.** -17.6 ± 9%

**Q.** And the IC50 [5]?
**A.** 908 ± 26 nM

**Q.** What about the “fold increase of inhibition compared to m7WT” value ([5]; mP2X7 A312V, 1 μM) of the same compound?
**A.** ~ 21 fold and 21 fold

**Q.** And the inhibition rate [6]?
**A.** ≤ 50%

**Q.** And the inhibition rate [7]?
**A.** ≤ 50%

**Q.** What about the solubility [8] of the same compound?
**A.** 30 µM (≈ 11.4 µg/mL)

**Q.** What about the “inhibitory effect on ATP (1 mM)-induced activation (inhibition ratio)” value (“inhibitory effect on ATP … (inhibition ratio)” below) [9] of the same compound?
**A.** significantly attenuated

**Q.** What about the “inhibitory effect on ATP … (inhibition ratio)” value [10] of the same compound?
**A.** significantly attenuated

**Q.** What about the “inhibitory effect on ATP … (inhibition ratio)” value [11] of the same compound?
**A.** significantly attenuated

**Q.** What about the IC50 [12] of the same compound?
**A.** 1570 ± 360 nM
